Data from the NIST ThermoML archive (doi:10.1016/j.jct.2014.07.010).
Numbers after ± are expanded uncertainties.

Assay: osmotic coefficient (dimensionless); mn = molality of the nth substance listed, in mol/kg
Settings: 298.15 K, Liquid, isopiestic method

Q: For `O=S(=O)([O-])[O-].[K+].[K+]` [potassium sulfate] + O, which osmotic coefficient (m1 = 0.4526) is on record?
A: 0.693 ± 0.015

Q: And the osmotic coefficient (m1 = 0.4667)?
A: 0.692 ± 0.015

Q: What about the osmotic coefficient (m1 = 0.4747) of the same compound?
A: 0.691 ± 0.015

Q: And the osmotic coefficient (m1 = 0.5108)?
A: 0.686 ± 0.016

Q: And the osmotic coefficient (m1 = 0.5495)?
A: 0.682 ± 0.016

Q: And the osmotic coefficient (m1 = 0.5708)?
A: 0.68 ± 0.016

Q: What about the osmotic coefficient (m1 = 0.6064) of the same compound?
A: 0.677 ± 0.016

Q: And the osmotic coefficient (m1 = 0.6321)?
A: 0.675 ± 0.016

Q: What about the osmotic coefficient (m1 = 0.6366) of the same compound?
A: 0.673 ± 0.016

Q: And the osmotic coefficient (m1 = 0.6529)?
A: 0.673 ± 0.016
